According to patent US20240279237A1, “FUSED BICYCLIC HETEROARYL COMPOUNDS USEFUL AS NLRP3 INHIBITORS” (Hoffmann-La Roche Inc., priority 2021, published 2024):

Target: T1, NLRP3 (Homo sapiens, UniProt Q96P20)
T1 construct: Seed THP-1 cells (25,000 cells/well) containing 1.0 μg/ml LPS in 40 μl of RPMI medium; host or cells: THP-1 cells
Assay: THP-1 Cells Pyroptosis Assay
Type: cell-based
Details: THP-1 cells with 1.0 μg/ml LPS; compound 3 hours; nigericin 5 μM 1 hr; resazurin readout
Method: The cells were routinely passaged and grown to confluency (˜10^6 cells/ml). On the day of the experiment, THP-1 cells were harvested and resuspended into RPMI medium (without FBS). The cells were then counted and viability (>90%) checked by Trypan blue (Sigma #T8154). […] To this diluted cell solution was added LPS (Sigma #L4524) to give a 1 μg/ml Final Assay Concentration (FAC). 40 μl of the final preparation was aliquoted into each well of a 96-well plate. The plate thus prepared was used for compound screening.
The following method step-by-step assay was followed for compound screening. • 1. […] Incubate for 3 hours at 37° C., 5% CO2 • 4. Add 5 μl nigericin (Sigma #N7143) (FAC 5 μM) to all wells • 5. Incubate for 1 hr at 37° C., 5% CO2 • 6. At the end of the incubation period, spin plates at 300×g for 3 mins and remove supernatant • 7. Then add 50 μl of resazurin (Sigma #R7017) (FAC 100 μM resazurin in RPMI medium without FBS) and incubate plates for a further 1-2 hours at 37° C. and 5% CO2 • 8.

T1 sequence (Q96P20 whole entry): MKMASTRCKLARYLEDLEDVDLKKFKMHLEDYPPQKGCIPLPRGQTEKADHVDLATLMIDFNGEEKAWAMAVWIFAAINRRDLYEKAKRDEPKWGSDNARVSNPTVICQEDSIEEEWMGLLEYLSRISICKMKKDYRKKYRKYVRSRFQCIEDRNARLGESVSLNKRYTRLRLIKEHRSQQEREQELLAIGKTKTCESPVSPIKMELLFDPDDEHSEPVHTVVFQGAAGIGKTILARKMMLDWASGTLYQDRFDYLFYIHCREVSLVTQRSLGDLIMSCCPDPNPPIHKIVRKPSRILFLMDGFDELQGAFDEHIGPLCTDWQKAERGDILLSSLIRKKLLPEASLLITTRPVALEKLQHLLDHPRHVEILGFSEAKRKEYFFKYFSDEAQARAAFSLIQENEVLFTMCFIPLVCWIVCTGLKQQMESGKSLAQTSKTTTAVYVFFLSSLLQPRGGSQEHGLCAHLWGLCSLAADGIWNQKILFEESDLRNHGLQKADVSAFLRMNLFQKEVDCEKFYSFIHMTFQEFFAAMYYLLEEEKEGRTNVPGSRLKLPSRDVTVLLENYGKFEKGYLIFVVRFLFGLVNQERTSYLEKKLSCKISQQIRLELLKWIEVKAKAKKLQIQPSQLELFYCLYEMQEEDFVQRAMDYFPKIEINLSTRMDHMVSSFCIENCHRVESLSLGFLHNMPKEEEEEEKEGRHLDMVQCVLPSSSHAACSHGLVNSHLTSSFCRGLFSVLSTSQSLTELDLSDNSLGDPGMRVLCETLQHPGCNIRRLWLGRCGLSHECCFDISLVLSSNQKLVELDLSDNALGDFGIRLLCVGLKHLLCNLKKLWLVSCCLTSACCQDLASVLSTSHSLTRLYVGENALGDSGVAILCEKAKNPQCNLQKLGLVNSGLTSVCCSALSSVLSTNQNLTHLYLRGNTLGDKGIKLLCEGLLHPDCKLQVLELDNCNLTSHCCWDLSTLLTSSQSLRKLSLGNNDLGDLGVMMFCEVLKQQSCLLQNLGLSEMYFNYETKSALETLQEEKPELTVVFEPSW

Compound | IC50 [nM]
Cc1cc(Cl)cc(O)c1-c1ccc2oc(NC3CCC4CCCN4C3)nc2n1 (centres unmarked) [Example 65, 2-[2-(1,2,3,5,6,7,8,8a-Octahydroindolizin-6-ylamino)oxazolo[4,5-b]pyridin-5-yl]-5-chloro-3-methyl-phenol] | 20.3
Cc1cc(F)cc(O)c1-c1ccc2oc(N[C@@H]3CCCN(C)C3)nc2n1 [Example 50, 5-Fluoro-3-methyl-2-[2-[[(3R)-1-methyl-3-piperidyl]amino]oxazolo[4,5-b]pyridin-5-yl]phenol] | 1.7
Cc1cc(Cl)cc(O)c1-c1ccc2oc(CC3CCCN(C)C3)nc2n1 (centres unmarked) [Example 83, 5-Chloro-3-methyl-2-[2-[(1-methyl-3-piperidyl)methyl]oxazolo[4,5-b]pyridin-5-yl]phenol] | 5.1
CCN1CC2OCCN(c3nc4nc(-c5c(C)cc(C#N)cc5O)ccc4o3)C2C1 [Example 80, 3-Hydroxy-5-methyl-4-[2-[rel-(4aS,7aR)-6-ethyl-2,3,4a,5,7,7a-hexahydropyrrolo[3,4-b][1,4]oxazin-4-yl]oxazolo[4,5-b]pyridin-5-yl]benzonitrile] | 110
Cc1cc(C(F)(F)F)cc(O)c1-c1ccc2oc(N3CCOCC3)nc2n1 [Example 4, 3-Methyl-2-(2-morpholinooxazolo[4,5-b]pyridin-5-yl)-5-(trifluoromethyl)phenol] | 29.4
CNC1CCCN(c2nc3nc(-c4c(C)cc(C(F)(F)F)cc4O)ccc3o2)C1 (racemic) [Example 10, (rac)-3-Methyl-2-[2-[3-(methylamino)-1-piperidyl]oxazolo[4,5-b]pyridin-5-yl]-5-(trifluoromethyl) phenol] | 107
Cc1cc(C#N)cc(O)c1-c1ccc2oc(N[C@H]3CCCN4CCC[C@@H]34)nc2n1 (single isomer, unassigned) [Example 139A, 4-[2-[[(8S,8aS)-1,2,3,5,6,7,8,8a-Octahydroindolizin-8-yl]amino]oxazolo[4,5-b]pyridin-5-yl]-3-hydroxy-5-methyl-benzonitrile or 4-[2-[[(8R,8aR)-1,2,3,5,6,7,8,8a-octahydroindolizin-8-yl]amino]oxazolo[4,5-b]pyridin-5-yl]-3-hydroxy-5-methyl-benzonitrile] | 3.7
Cc1cc(C(F)(F)F)cc(O)c1-c1ccc2oc(N3CC(O)C3)nc2n1 [Example 12, 1-[5-[2-Hydroxy-6-methyl-4-(trifluoromethyl)phenyl]oxazolo[4,5-b]pyridin-2-yl]azetidin-3-ol] | 215
5-Chloro-2-[2-[[(3R)-1-ethyl-3-piperidyl]amino]oxazolo[4,5-b]pyridin-5-yl]-4-fluoro-3-methyl-phenol;2,2,2-trifluoroacetic acid salt [Example 22] | 5.4
CCN1CCC[C@@H](Nc2nc3nc(-c4c(O)cc(C#N)cc4COC)ccc3o2)C1 [Example 110, 4-[2-[[(3R)-1-Ethyl-3-piperidyl]amino]oxazolo[4,5-b]pyridin-5-yl]-3-hydroxy-5-(methoxymethyl)benzonitrile;2,2,2-trifluoroacetic acid] | 5.8
COc1cc(C)c(-c2ccc3oc(N[C@@H]4CCCN(C)C4)nc3n2)c(O)c1 [Example 34, 5-Methoxy-3-methyl-2-[2-[[(3R)-1-methyl-3-piperidyl]amino]oxazolo[4,5-b]pyridin-5-yl]phenol] | 18.9
Cc1cc(Cl)cc(O)c1-c1ccc2oc(NCc3c[nH]cn3)nc2n1 [Example 67, 5-Chloro-2-[2-(1H-imidazol-5-ylmethylamino)oxazolo[4,5-b]pyridin-5-yl]-3-methyl-phenol; formic acid] | 290
Cc1cc(C(F)(F)F)cc(O)c1-c1ccc2oc(N3CCOCC3CN(C)C)nc2n1 (racemic) [Example 2, (rac)-2-[2-[3-[(Dimethylamino)methyl]morpholin-4-yl]oxazolo[4,5-b]pyridin-5-yl]-3-methyl-5-(trifluoromethyl)phenol] | 17.4
Cc1cc(C(F)(F)F)cc(O)c1-c1ccc2oc(N3CCO[C@H]4CNC[C@@H]43)nc2n1 [Example 64B, 2-[2-[(4aS,7aS)-3,4a,5,6,7,7a-Hexahydro-2H-pyrrolo[3,4-b][1,4]oxazin-4-yl]oxazolo[4,5-b]pyridin-5-yl]-3-methyl-5-(trifluoromethyl)phenol] | 13.9
CCN1CCCC[C@@H](Nc2nc3nc(-c4c(C)cc(C(F)(F)F)cc4O)ccc3o2)C1 [Example 91, 2-[2-[[(3R)-1-Ethylazepan-3-yl]amino]oxazolo[4,5-b]pyridin-5-yl]-3-methyl-5-(trifluoromethyl)phenol] | 4.9
Cc1cc(C(F)(F)F)cc(O)c1-c1ccc2[nH]c(C3CCCCN3C)nc2n1 (racemic) [Example 16, (rac)-3-Methyl-2-(2-(1-methylpiperidin-2-yl)-3H-imidazo[4,5-b]pyridin-5-yl)-5-(trifluoromethyl)phenol] | 330
CCN1CCC[C@@H](Nc2nc3nc(-c4ccc(Cl)cc4O)c(Cl)cc3o2)C1 [Example 127, 5-Chloro-2-[6-Chloro-2-[[(3R)-1-ethyl-3-piperidyl]amino]oxazolo[4,5-b]pyridin-5-yl]phenol] | 20.6
CCN1CCC(Nc2nc3nc(-c4c(C)cc(C(F)(F)F)cc4O)ccc3o2)C1 (centres unmarked) [Example 131, 2-[2-[(1-Ethylpyrrolidin-3-yl)amino]oxazolo[4,5-b]pyridin-5-yl]-3-methyl-5-(trifluoromethyl)phenol] | 9.6
Cc1cc(C(F)(F)F)cc(O)c1-c1ccc2oc(NC3CCOC3)nc2n1 (racemic) [Example 38, (rac)-3-Methyl-2-[2-(tetrahydrofuran-3-ylamino)oxazolo[4,5-b]pyridin-5-yl]-5-(trifluoromethyl)phenol] | 85.3
CC(=O)c1cc(-c2c(C)cc(C(F)(F)F)cc2O)nc2nc(N[C@@H]3CCCN(C)C3)oc12 [Example 102, 1-[5-[2-Hydroxy-6-methyl-4-(trifluoromethyl)phenyl]-2-[[(3R)-1-methyl-3-piperidyl]amino]oxazolo[4,5-b]pyridin-7-yl]ethanone;2,2,2-trifluoroacetic acid] | 6.5
CCN1CCC[C@@H](Nc2nc3nc(-c4c(O)cccc4C#N)ccc3o2)C1 [Example 119, 2-[2-[[(3R)-1-Ethyl-3-piperidyl]amino]oxazolo[4,5-b]pyridin-5-yl]-3-hydroxy-benzonitrile] | 23
Cc1cc(C#N)cc(O)c1-c1ccc2oc(N[C@@H]3CCCN(CCO)C3)nc2n1 [Example 85, 3-Hydroxy-4-[2-[[(3R)-1-(2-hydroxyethyl)-3-piperidyl]amino]oxazolo[4,5-b]pyridin-5-yl]-5-methyl-benzonitrile] | 15.4
Cc1cc(C2CC2)cc(O)c1-c1ccc2oc(N[C@@H]3CCCN(C)C3)nc2n1 [Example 36, 5-Cyclopropyl-3-methyl-2-[2-[[(3R)-1-methyl-3-piperidyl]amino]oxazolo[4,5-b]pyridin-5-yl]phenol] | 32
Cc1cc(Cl)cc(O)c1-c1ccc2oc(N[C@@H]3CCCN(C[C@@H]4CC[C@H]4O)C3)nc2n1 (racemic) [Example 118A, 5-chloro-2-[2-[[(3R)-1-[[rac trans-2-hydroxycyclobutyl]methyl]-3-piperidyl]amino]oxazolo[4,5-b]pyridin-5-yl]-3-methyl-phenol or 5-chloro-2-[2-[[(3R)-1-[[rac cis-2-hydroxycyclobutyl]methyl]-3-piperidyl]amino]oxazolo[4,5-b]pyridin-5-yl]-3-methyl-phenol] | 50.8
Cc1cc(Cl)cc(O)c1-c1ccc2oc(NCC3CC(O)C3)nc2n1 (centres unmarked) [Example 92, 5-Chloro-2-[2-[(3-hydroxycyclobutyl)methylamino]oxazolo[4,5-b]pyridin-5-yl]-3-methyl-phenol] | 26.9
Cc1cc(Cl)cc(O)c1-c1ccc2oc(N[C@@H]3CCCN(CC4CC(O)C4)C3)nc2n1 (stereo partly drawn) [Example 75, 5-Chloro-3-methyl-2-[2-[[(3R)-1-[(3-hydroxycyclobutyl)methyl]-3-piperidyl]amino]oxazolo-[4,5-b]pyridin-5-yl]phenol] | 20.8
Cc1cc(C(F)(F)F)cc(O)c1-c1ccc2oc(N3CCO[C@H]4CNC[C@@H]43)nc2n1 (racemic) [Example 64, 3-Methyl-2-[2-[rac-(4aS,7aS)-3,4a,5,6,7,7a-hexahydro-2H-pyrrolo[3,4-b][1,4]oxazin-4-yl]oxazolo[4,5-b]pyridin-5-yl]-5-(trifluoromethyl)phenol;2,2,2-trifluoroacetic acid] | 4.9
Cc1cc(C(F)(F)F)cc(O)c1-c1ccc2oc(N3CC[C@H]4CCN(C)C[C@H]43)nc2n1 (single isomer, unassigned) [Example 37B, 2-[2-[(3aR,7aS)-6-methyl-3,3a,4,5,7,7a-hexahydro-2H-pyrrolo[2,3-c]pyridin-1-yl]oxazolo[4,5-b]pyridin-5-yl]-3-methyl-5-(trifluoromethyl)-phenol or 2-[2-[(3aS,7aR)-6-Methyl-3,3a,4,5,7,7a-hexahydro-2H-pyrrolo[2,3-c]pyridin-1-yl]oxazolo[4,5-b]pyridin-5-yl]-3-methyl-5-(trifluoromethyl)phenol] | 1.1
COCCCN1CCC[C@@H](Nc2nc3nc(-c4c(C)cc(Cl)cc4O)ccc3o2)C1 [Example 96, 5-Chloro-2-[2-[[(3R)-1-(3-methoxypropyl)-3-piperidyl]amino]oxazolo[4,5-b]pyridin-5-yl]-3-methyl-phenol] | 56.1
